These results are taken from ChEMBL document CHEMBL1129827, “Discovery of imidazo[1,2-c]pyrimidin-5(6H)-one heterosubstituted nucleoside analogues with potent activity against human hepatitis B virus in vitro” (Bioorg Med Chem Lett, 1997).

The source made the active and inactive calls. The rule behind the calls is not given here.

Usually EC90 stands for the point of the concentration-response curve where the effect stands at 90%. The low end stands for greater potency, the high end for weaker potency. Usually CC50 stands for the concentration giving 50% cytotoxicity. Broadly, the EC50 is the concentration needed to bring the measured effect to its halfway point.

Data set [1] has as its system HepG2. As to the kind of experiment: Compound concentration required to inhibit 90% of extracellular replicating HBV (Hepatitis B virus) virion in human hepatoma cell line 2.2.15. It counts as functional.
A short description of data set [2]: Compound concentration that cause 50% cytotoxicity was determined by neutral red uptake in 2.2.15 Cells. The note with it: human. The format is cell-based, HepG2 2.2.15.
Data set [3] deals with HepG2. The data set is described as follows: Compound concentration required to inhibit 50% of extracellular replicating HBV (Hepatitis B virus) virion in human hepatoma cell line 2.2.15. The format is functional, cell-based.
The nature of data set [4]: Selectivity index (SI) is the ratio of CC50/EC90 for HBV virion. It counts as functional.
For data set [5], the system named is HepG2. The data set is described as follows: Compound concentration required to inhibit 90% of intracellular replicating HBV (Hepatitis B virus) RI in human hepatoma cell line 2.2.15. It counts as functional.
Data set [6] concerns HepG2. As to the kind of experiment: Compound concentration required to inhibit 50% of intracellular replicating HBV (Hepatitis B virus) RI in human hepatoma cell line 2.2.15. It counts as functional, cell-based.
A short description of data set [7]: Selectivity index (SI) is the ratio of CC50/EC90 for HBV RI. It counts as functional.
Data set [8] concerns MT4. The data set is described as follows: Compound was evaluated for the inhibition of replication of HIV-1 in MT-4 (human T helper) cells up to 300 uM; Not active. It counts as functional, cell-based.
Data set [9] relates to MT4. As to the kind of experiment: Compound was evaluated for the inhibition of replication of HIV-1 in MT-4 (human T helper) cells up to 300 uM; not active. The format is functional, cell-based.

`O=c1n([C@H]2CO[C@@H](CO)O2)ccc2nc(-c3ccc([N+](=O)[O-])cc3)cn12` came in with an EC90 in data set [1] of 10.9 µM. This compound registered a CC50 in [2] of 486 µM. The compound also registered an EC50 in data set [3] of 2.3 µM. Further, the SI in data set [4] came to 45.

In data set [1], `O=c1n([C@H]2CO[C@H](CO)O2)cc(F)c2nc(CO)cn12` gave an EC90 of more than 105 µM. Also, in data set [2], the CC50 came out at 1390 µM. Also, in [3], the EC50 was more than 105 µM.

For `O=c1n([C@H]2CO[C@@H](CO)O2)cc(F)c2nc(CO)cn12`, the EC90 in data set [1] stood at 33.3 µM; in data set [5] it was 66.6 µM. Moreover, the EC50 was found to be 29.1 µM in data set [6] and 15.1 µM in [3]. Besides, the CC50 in data set [2] was found to be 1060 µM. Besides, the SI in data set [4] came to 36; in data set [7], 16.

Consider `O=c1n([C@H]2CO[C@H](CO)O2)ccc2nc(-c3ccc([N+](=O)[O-])cc3)cn12`, for which the EC90 in data set [1] was 108 µM. Moreover, the outcome in data set [8] was inactive. The compound also gave a CC50 in [2] of 517 µM. In addition, it took 12.5 µM to reach a half-maximal effect in [3] (EC50). Further, the SI in data set [4] turned out to be 5.7.

In data set [1], `CCOC(=O)c1cn2c(=O)n(C3CSC(CO)O3)ccc2n1` (stereo not given) came in with an EC90 of more than 90 µM. This compound also registered a CC50 in data set [2] of more than 90 µM. This compound also came in with an EC50 in data set [3] of more than 90 µM.

Turning to `O=c1n(C2CSC(CO)O2)ccc2nc(-c3ccc([N+](=O)[O-])cc3)cn12` (stereo not given), the outcome in data set [8] was inactive. The CC50 in data set [2] is more than 26.7 µM. In [3], this compound yielded an EC50 of 4.8 µM. Also, the SI in data set [4] was more than 5.6.

In turn, `O=c1n(C2COC(CO)O2)ccc2nc(CO)cn12` (stereo not given) had an EC90 in data set [1] of 10.5 µM. Besides, the CC50 in [2] turned out to be 618 µM. Moreover, the EC50 in [3] turned out to be 2 µM. In addition, the SI in data set [4] turned out to be 59.

For `O=c1n([C@H]2CO[C@@H](CO)O2)cc(F)c2nc(-c3ccc([N+](=O)[O-])cc3)cn12`, the EC90 was 5.9 µM in data set [1] and 13.6 µM in [5]. In addition, the EC50 is 7.7 µM in [6] and 1.9 µM in data set [3]. Further, the CC50 in data set [2] is 1390 µM. Moreover, the SI in data set [4] was 180; in data set [7] it was 103.

As to `O=c1n([C@H]2CO[C@H](CO)O2)cc(F)c2nc(-c3ccc([N+](=O)[O-])cc3)cn12`, the EC90 in data set [1] turned out to be 8.8 µM; in data set [5], 25 µM. For the same compound, the EC50 is 12.8 µM in [6] and 3.7 µM in [3]. In addition, the result in [8] was inactive. The compound further had a CC50 in data set [2] of 587 µM. The SI in [4] stood at 46; in data set [7], 24.

For `O=c1n(C2COC(CO)O2)ccc2nc(-c3ccc(F)cc3)cn12` (stereo not given), in [1], the EC90 worked out at 25.2 µM. The compound further displayed a CC50 in data set [2] of 850 µM. In data set [3], this compound returned an EC50 of 4.2 µM. Moreover, in data set [4], the SI turned out to be 34.

`Nc1ccn([C@H]2CC[C@@H](CO)O2)c(=O)n1` [ZALCITABINE]: the results for the EC90 in [1] and in data set [5] were 6.9 µM and 10 µM, respectively. Moreover, the EC50 stood at 3.2 µM in data set [6] and 1.5 µM in data set [3]. The same compound gave a CC50 in data set [2] of 233 µM. The SI in [7] stood at 23.

For the compound `O=c1n(C2CSC(CO)O2)ccc2nc(CO)cn12` (stereo not given), the EC90 in [1] stood at 276 µM. In data set [9], the result was inactive. In data set [2], this compound returned a CC50 of 456 µM. Also, a half-maximal response in data set [3] (EC50) required 77.7 µM. Further, the SI in [4] came out at 1.7.
